Data on 22 molecules can be found in ChEMBL document CHEMBL3991601, “The target landscape of clinical kinase drugs” (Science, 2017).

The source made the active and inactive calls. For most assays here, no stated cut-off is given here; in the data, actives have a measured Kd and inactives only a lower limit.

As usually defined, the Kd is the concentration at which binding is half-saturated.

Assay [1] deals with Interleukin-1 receptor-associated kinase 1 (Homo sapiens, UniProt P51617).
For assay [2], the target named is Serine/threonine-protein kinase 10 (Homo sapiens, UniProt O94804).
Sequence of Serine/threonine-protein kinase 10 (O94804 whole entry): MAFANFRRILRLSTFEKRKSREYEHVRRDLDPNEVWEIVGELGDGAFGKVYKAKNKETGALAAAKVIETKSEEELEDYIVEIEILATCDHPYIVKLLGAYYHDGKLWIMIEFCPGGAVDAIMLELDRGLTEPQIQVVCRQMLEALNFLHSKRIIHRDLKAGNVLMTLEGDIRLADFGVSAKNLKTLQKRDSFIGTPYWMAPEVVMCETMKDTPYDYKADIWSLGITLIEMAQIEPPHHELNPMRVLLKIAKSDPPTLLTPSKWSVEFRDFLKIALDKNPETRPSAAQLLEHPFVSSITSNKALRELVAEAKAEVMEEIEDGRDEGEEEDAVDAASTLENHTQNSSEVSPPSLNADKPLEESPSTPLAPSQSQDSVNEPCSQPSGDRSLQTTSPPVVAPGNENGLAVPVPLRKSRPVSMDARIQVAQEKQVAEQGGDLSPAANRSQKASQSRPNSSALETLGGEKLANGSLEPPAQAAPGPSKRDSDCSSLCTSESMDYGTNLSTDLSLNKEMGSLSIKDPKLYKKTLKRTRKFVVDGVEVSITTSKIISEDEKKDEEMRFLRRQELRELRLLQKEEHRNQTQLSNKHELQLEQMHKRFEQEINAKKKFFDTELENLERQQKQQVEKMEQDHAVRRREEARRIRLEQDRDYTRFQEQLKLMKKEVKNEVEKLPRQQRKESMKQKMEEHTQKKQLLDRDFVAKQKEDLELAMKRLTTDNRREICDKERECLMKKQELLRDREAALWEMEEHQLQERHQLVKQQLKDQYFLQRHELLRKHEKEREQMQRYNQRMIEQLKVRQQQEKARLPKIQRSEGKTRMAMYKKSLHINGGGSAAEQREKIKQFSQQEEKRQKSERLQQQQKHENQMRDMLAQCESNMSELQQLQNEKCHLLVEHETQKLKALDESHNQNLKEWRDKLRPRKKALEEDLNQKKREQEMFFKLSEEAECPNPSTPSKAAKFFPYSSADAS
The target in assay [3] is T1, Structural maintenance of chromosomes protein 1A (Homo sapiens, UniProt Q14683).
T1 sequence (Q14683 whole entry): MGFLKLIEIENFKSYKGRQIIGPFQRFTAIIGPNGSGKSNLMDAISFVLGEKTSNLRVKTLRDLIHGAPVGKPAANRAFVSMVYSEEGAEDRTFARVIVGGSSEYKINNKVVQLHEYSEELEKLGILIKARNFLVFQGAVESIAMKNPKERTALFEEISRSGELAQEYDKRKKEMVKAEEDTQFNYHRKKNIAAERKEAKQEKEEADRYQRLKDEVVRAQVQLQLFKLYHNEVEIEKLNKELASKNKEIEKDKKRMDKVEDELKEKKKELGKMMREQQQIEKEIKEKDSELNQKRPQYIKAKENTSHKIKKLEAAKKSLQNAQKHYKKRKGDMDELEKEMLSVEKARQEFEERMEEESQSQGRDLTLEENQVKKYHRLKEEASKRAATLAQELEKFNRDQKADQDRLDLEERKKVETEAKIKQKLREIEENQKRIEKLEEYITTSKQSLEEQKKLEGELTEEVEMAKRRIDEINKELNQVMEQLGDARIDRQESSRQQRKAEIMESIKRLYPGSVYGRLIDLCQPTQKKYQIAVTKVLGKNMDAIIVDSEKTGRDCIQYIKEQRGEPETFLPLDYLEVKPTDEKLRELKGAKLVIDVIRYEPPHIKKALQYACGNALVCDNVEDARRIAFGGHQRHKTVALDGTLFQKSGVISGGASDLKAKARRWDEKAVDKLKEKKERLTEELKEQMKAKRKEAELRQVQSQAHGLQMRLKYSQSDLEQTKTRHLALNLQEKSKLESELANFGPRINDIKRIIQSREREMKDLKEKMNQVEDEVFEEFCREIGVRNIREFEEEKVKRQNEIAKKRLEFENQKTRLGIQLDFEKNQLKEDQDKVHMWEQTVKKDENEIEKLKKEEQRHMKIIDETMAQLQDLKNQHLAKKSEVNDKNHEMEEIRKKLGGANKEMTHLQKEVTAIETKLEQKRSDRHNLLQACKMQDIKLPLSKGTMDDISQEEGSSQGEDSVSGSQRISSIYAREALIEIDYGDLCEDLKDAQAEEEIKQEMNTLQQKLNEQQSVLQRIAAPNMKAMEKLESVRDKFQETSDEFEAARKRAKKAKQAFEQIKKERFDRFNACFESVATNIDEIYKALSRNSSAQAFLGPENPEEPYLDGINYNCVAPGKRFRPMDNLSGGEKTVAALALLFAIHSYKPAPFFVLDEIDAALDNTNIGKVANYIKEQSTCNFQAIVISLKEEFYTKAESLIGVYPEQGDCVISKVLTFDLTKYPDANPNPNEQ

In assay [4] the target is T2, Serine/threonine-protein kinase ULK1 (Homo sapiens, UniProt O75385).
T2 sequence (O75385 whole entry): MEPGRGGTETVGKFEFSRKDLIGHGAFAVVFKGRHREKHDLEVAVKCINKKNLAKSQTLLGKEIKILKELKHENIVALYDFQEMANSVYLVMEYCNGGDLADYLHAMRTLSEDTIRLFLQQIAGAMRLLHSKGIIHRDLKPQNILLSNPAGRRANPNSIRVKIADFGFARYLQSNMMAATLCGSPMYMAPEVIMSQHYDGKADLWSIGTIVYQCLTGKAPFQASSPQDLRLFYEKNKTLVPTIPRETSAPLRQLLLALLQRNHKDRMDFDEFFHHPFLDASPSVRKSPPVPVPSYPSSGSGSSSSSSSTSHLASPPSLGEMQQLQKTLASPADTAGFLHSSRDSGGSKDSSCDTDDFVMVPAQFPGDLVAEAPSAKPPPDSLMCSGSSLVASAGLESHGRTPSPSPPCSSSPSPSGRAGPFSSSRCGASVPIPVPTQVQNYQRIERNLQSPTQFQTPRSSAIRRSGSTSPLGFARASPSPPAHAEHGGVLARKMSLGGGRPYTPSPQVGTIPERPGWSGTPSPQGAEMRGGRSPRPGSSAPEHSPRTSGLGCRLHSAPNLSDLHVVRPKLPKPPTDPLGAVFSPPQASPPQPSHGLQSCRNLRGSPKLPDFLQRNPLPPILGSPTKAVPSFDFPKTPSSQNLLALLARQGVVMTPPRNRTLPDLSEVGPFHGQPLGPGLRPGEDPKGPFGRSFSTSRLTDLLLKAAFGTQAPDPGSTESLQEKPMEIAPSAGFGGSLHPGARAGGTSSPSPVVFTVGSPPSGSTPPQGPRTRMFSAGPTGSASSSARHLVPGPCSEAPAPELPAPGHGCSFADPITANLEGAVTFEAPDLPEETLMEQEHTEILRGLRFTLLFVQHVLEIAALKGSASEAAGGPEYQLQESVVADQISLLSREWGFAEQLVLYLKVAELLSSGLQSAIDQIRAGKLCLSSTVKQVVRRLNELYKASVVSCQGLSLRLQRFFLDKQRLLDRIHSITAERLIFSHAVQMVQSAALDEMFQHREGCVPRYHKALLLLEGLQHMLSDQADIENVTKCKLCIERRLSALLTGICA

Assay [5] concerns the target T3, Serine/threonine-protein kinase 4 (Homo sapiens, UniProt Q13043).
T3 sequence (Q13043 whole entry): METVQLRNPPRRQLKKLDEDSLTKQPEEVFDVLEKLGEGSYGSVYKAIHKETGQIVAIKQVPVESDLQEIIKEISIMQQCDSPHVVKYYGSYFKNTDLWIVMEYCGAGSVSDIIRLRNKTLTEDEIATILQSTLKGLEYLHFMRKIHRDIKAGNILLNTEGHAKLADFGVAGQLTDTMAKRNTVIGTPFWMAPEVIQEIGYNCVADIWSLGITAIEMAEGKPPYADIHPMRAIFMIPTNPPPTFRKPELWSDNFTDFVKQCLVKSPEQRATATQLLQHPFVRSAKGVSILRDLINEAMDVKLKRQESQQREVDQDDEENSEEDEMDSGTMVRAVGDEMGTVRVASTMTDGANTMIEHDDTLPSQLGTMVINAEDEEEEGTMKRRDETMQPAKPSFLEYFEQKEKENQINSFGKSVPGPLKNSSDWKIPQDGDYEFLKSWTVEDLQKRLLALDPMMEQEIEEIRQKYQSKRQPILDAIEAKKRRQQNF

Sequence of Interleukin-1 receptor-associated kinase 1 (P51617 whole entry): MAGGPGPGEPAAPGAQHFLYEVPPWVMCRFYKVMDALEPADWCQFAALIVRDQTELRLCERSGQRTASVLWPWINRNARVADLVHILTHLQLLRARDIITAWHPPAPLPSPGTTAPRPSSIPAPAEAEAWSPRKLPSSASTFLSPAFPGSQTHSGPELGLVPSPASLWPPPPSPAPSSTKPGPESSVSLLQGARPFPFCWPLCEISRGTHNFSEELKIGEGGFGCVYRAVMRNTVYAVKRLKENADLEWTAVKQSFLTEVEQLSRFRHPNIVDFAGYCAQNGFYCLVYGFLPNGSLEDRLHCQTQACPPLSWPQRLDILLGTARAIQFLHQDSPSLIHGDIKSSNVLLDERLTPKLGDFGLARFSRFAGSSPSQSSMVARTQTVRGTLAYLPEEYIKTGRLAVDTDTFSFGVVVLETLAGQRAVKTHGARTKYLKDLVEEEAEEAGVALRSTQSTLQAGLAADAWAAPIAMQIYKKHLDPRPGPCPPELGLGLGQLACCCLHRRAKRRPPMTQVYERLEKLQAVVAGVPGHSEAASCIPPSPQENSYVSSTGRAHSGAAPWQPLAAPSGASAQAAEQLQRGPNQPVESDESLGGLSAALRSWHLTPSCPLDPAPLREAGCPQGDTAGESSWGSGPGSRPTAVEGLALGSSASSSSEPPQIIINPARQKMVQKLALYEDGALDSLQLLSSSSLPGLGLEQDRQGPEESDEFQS

Regarding `S=C(NCc1ccc2c(c1)OCO2)N1CCN(c2ncnc3c2oc2ccccc23)CC1` [AMUVATINIB], the Kd in assay [1], in assay [2], in assay [3], in assay [4] and in assay [5] was > 30 µM (inactive) in each case.

For `O[C@H]1CC[C@H](Nc2ncc3nc(Nc4c(F)cc(F)cc4F)n([C@H]4CCOC4)c3n2)CC1` [TANZISERTIB], the Kd in assay [1], in assay [2], in assay [3], in assay [4] and in assay [5] was > 30 µM (inactive) each time.

`Cn1c(=O)n(-c2ccc(C(C)(C)C#N)cc2)c2c3cc(-c4cnc5ccccc5c4)ccc3ncc21` [DACTOLISIB]: the Kd in assay [2], in assay [3], in assay [4] and in assay [5] was > 30 µM (inactive) each time.

Regarding `O=c1[nH]c([C@@H]2CCCN2)nc2c1oc1ccc(Cl)cc12`, the Kd in assay [1], in assay [2], in assay [4] and in assay [5] was > 30 µM (inactive) throughout.

With `C[C@@]1(C(=O)Nc2ccc(F)nc2)CCCN1c1nc(Nc2cc(C3CC3)n[nH]2)c2cccn2n1` [BMS-754807], the Kd in assay [3] was > 30 µM (inactive).

For the molecule `c1cc(OCCN2CCCCC2)cc(-c2n[nH]c3ccc(-c4nc[nH]n4)cc23)c1` [CC-401], the Kd in assay [1], in assay [2], in assay [4] and in assay [5] was > 30 µM (inactive) throughout.

On to `CN(c1ncccc1CNc1nc(Nc2ccc3c(c2)CC(=O)N3)ncc1C(F)(F)F)S(C)(=O)=O` [PF-00562271], for which the Kd was > 30 µM (inactive) in assay [2], > 30 µM (inactive) in assay [3], > 30 µM (inactive) in assay [4] and 5.93 µM (active) in assay [5].

Regarding `N#CCNC(=O)c1ccc(-c2ccnc(Nc3ccc(N4CCOCC4)cc3)n2)cc1` [MOMELOTINIB], the Kd in assay [1], in assay [3], in assay [4] and in assay [5] was > 30 µM (inactive) each time.

For the molecule `COc1cc2c(Oc3ccc4[nH]c(C)cc4c3F)ncnc2cc1OCCCN1CCCC1` [CEDIRANIB], the Kd in assay [3] is > 30 µM (inactive).

`Cn1cnc2c(F)c(Nc3ccc(Br)cc3Cl)c(C(=O)NOCCO)cc21` [SELUMETINIB] returned a Kd in assay [3] of 0.365 µM.

As for `C=CCN(/C=C1/C(=O)O[C@H](COC)[C@@]2(C)C1=C(O)C(=O)C1=C2[C@H](OC(C)=O)C[C@]2(C)C(=O)CC[C@@H]12)CC=C` [SONOLISIB], the Kd in assay [1], in assay [2], in assay [4] and in assay [5] was > 30 µM (inactive) throughout.

Turning to `CC1(C)CNc2cc(NC(=O)c3cccnc3NCc3ccncc3)ccc21` [MOTESANIB], the Kd in assay [3] was > 30 µM (inactive).

As to `CC(C)(O)CC(=O)NCCn1ccc2ncnc(Nc3ccc(Oc4cccc(C(F)(F)F)c4)c(Cl)c3)c21` [TAK-285], the Kd in assay [1], in assay [2], in assay [3] and in assay [5] was > 30 µM (inactive) throughout.

On to `NC[C@@](O)(c1ccc(Cl)cc1)c1ccc(-c2cn[nH]c2)cc1` [AT-13148], for which the Kd in assay [1], in assay [2], in assay [3] and in assay [5] was > 30 µM (inactive) throughout.

On to `CCOc1ccn(-c2ccc(F)cc2)c(=O)c1C(=O)Nc1ccc(Oc2ccnc(N)c2Cl)c(F)c1` [BMS-777607], for which the Kd in assay [2], in assay [3] and in assay [4] was > 30 µM (inactive) throughout.

Regarding `COc1cc(F)c(F)c(Nc2ccc(I)cc2F)c1NS(=O)(=O)C1(C[C@H](O)CO)CC1` [REFAMETINIB], the Kd in assay [1], in assay [2], in assay [4] and in assay [5] was > 30 µM (inactive) in each case.

In the case of `COc1cc2ncnc(Nc3ccc(F)c(Cl)c3)c2cc1NC(=O)/C=C/CN1CCCCC1` [DACOMITINIB ANHYDROUS], the Kd in assay [1], in assay [2], in assay [4] and in assay [5] was > 30 µM (inactive) in each case.

For `O=S(=O)(c1cccc2cnccc12)N1CCCNCC1` [FASUDIL], the Kd in assay [1], in assay [2], in assay [3] and in assay [5] was > 30 µM (inactive) in each case.

As to `Cc1c(NC(=O)OC[C@@H]2COCCN2)cn2ncnc(Nc3ccc4c(cnn4Cc4cccc(F)c4)c3)c12` [AC-480], the Kd in assay [1], in assay [2], in assay [4] and in assay [5] was > 30 µM (inactive) each time.

In the case of `C[C@]1(O)C[C@@H](c2nc(-c3ccc4ccc(-c5ccccc5)nc4c3)c3c(N)nccn32)C1` [LINSITINIB], the Kd in assay [2], in assay [3], in assay [4] and in assay [5] was > 30 µM (inactive) in each case.

For `CC(C)CC(=O)Nc1[nH]nc2c1CN(C(=O)C1CCN(C)CC1)C2(C)C` [PHA-793887], the Kd in assay [2] was > 30 µM (inactive); in assay [3] it was > 30 µM (inactive); in assay [4], 0.838 µM; in assay [5], > 30 µM (inactive).

Turning to `CC1(COc2ccc3c(c2)ncn3-c2ccc3cccc(N4CCC(N)CC4)c3n2)COC1` [CRENOLANIB], the Kd is 3.43 µM (active) in assay [2], > 30 µM (inactive) in assay [3], 0.839 µM (active) in assay [4] and 0.702 µM (active) in assay [5].
